Source: DBAASP
≈ marks a conversion by molar mass, not a printed value. Where “and” joins values, the source holds several entries; their conditions need not be identical. Identical values can stand only once. Each block holds one compound with its values, some of them ahead of it.

Experiments:
Assay in all cases: ≥ marks a high value that may be exact or a test limit, other limits are often not marked, values filed in µg/mL are converted to µM
[1] = tested on: Vibrio vulnificus KCTC 2982
[2] = tested on: Vibrio alginolyticus KCCM 2928
[3] = tested on: Streptococcus iniae FP5228
[4] = tested on: Vibrio ordalii KCCM 41669
[5] = tested on: Vibrio campbellii KCCM 40684
Edwardsiella tarda = tested on: Edwardsiella tarda
Escherichia coli JM109 = tested on: Escherichia coli JM109
[6] = tested on: Vibrio harveyi ATCC 14126
[7] = tested on: Mycobacterium tuberculosis H37Rv
Streptococcus agalactiae = tested on: Streptococcus agalactiae
[8] = tested on: Staphylococcus aureus ATCC 25923
Candida glabrata = tested on: Candida glabrata
Candida albicans = tested on: Candida albicans
[9] = tested on: Pseudomonas aeruginosa ATCC 9027
[10] = tested on: Mycobacterium tuberculosis
[11] = tested on: Escherichia coli ATCC 25922
[12] = tested on: Pseudomonas aeruginosa CGMCC 1.860
[13] = tested on: Pseudomonas aeruginosa 0108
[14] = tested on: Xanthomonas campestris pv. campestris
Bacillus subtilis = tested on: Bacillus subtilis
[15] = tested on: Cryptococcus neoformans var. grubii H99
[16] = tested on: Escherichia coli DH5alpha
Candida albicans SC5314 = tested on: Candida albicans SC5314
[17] = tested on: Pseudomonas aeruginosa ATCC 27853
[18] = tested on: Xanthomonas oryzae pv. oryzae
[19] = tested on: Staphylococcus aureus USA 100
[20] = tested on: Enterococcus faecalis V583
Enterococcus faecalis VR = tested on: Enterococcus faecalis VR
[21] = tested on: Flavobacterium psychrophilum 1947
[22] = tested on: Escherichia coli ATCC 25922 ΔrfaC
Escherichia coli BW25113 = tested on: Escherichia coli BW25113
[23] = tested on: Campylobacter jejuni NCTC 11168
Pseudomonas aeruginosa = tested on: Pseudomonas aeruginosa
Enterococcus faecalis = tested on: Enterococcus faecalis
[24] = tested on: Salmonella enterica subsp. enterica serovar Typhimurium LT2
[25] = tested on: Enterococcus faecalis ATCC 29212
[26] = tested on: Staphylococcus aureus ATCC 29213
[27] = tested on: Escherichia coli ATCC BAA-2523
[28] = tested on: Escherichia coli BW25113 ΔrfaC
[29] = tested on: Staphylococcus aureus ATCC 43300
[30] = tested on: Yersinia ruckeri 392/2003
[31] = tested on: Aeromonas salmonicida ATCC 33658
[32] = tested on: Listeria monocytogenes N22-2
[33] = tested on: Staphylococcus epidermidis KCTC 3096
[34] = tested on: Trichosporon beigelii KCTC 7707
[35] = tested on: Salmonella typhimurium KCTC 1926
[36] = tested on: Pseudomonas aeruginosa KCTC 1637
[37] = tested on: Candida albicans TIMM 1768
[38] = tested on: Bacillus subtilis KCTC 1918

SMILES: CC[C@H](C)[C@H](NC(=O)[C@H](C)NC(=O)[C@H](Cc1cnc[nH]1)NC(=O)CNC(=O)[C@@H](NC(=O)CNC(=O)[C@H](Cc1cnc[nH]1)NC(=O)[C@H](CC(C)C)NC(=O)[C@H](CC(C)C)NC(=O)[C@H](CCSC)NC(=O)CNC(=O)[C@H](CC(C)C)NC(=O)[C@H](Cc1ccccc1)NC(=O)CNC(=O)[C@H](CCC(=O)O)NC(=O)CN)C(C)C)C(=O)N[C@@H](Cc1cnc[nH]1)C(=O)NCC(=O)N[C@@H](CC(C)C)C(=O)N[C@H](C(=O)N[C@@H](Cc1cnc[nH]1)C(=O)NCC(=O)N[C@@H](CCCCN)C(=O)O)[C@@H](C)CC [GEGFLGMLLHGVGHAIHGLIHGK]
MIC [1]: 5.52 µM (≈ 13 µg/mL)
MIC [2]: 1.31 µM (≈ 3.07 µg/mL)
MIC [3]: 0.9 µM (≈ 2.12 µg/mL)
MIC [4]: 0.9 µM (≈ 2.12 µg/mL)
MIC [5]: 1.9 µM (≈ 4.47 µg/mL)
MIC (Edwardsiella tarda): ≥ 354 µM
MIC (Escherichia coli JM109): 2.72 µM (≈ 6.4 µg/mL)
MIC [6]: 0.9 µM (≈ 2.12 µg/mL)

SMILES: CC[C@H](C)[C@H](NC(=O)[C@H](CC(C)C)NC(=O)[C@H](CO)NC(=O)[C@@H]1CCCN1C(=O)[C@@H](NC(=O)[C@H](C)NC(=O)[C@H](CCCCN)NC(=O)[C@H](CCSC)NC(=O)[C@H](C)NC(=O)[C@H](CC(C)C)NC(=O)[C@H](CCCCN)NC(=O)CNC(=O)[C@H](CC(C)C)NC(=O)[C@H](Cc1ccccc1)NC(=O)CNC(=O)[C@H](Cc1c[nH]c2ccccc12)NC(=O)[C@@H](N)Cc1ccccc1)C(C)C)C(=O)NCC(=O)NCC(=O)N[C@@H](CC(N)=O)C(=O)N[C@@H](CCCCN)C(=O)N[C@@H](CCCCN)C(=O)O [FWGFLGKLAMKAVPSLIGGNKK]
MIC [7]: 13.6 µM (≈ 32.1 µg/mL)
MIC (Streptococcus agalactiae): 10 µM (≈ 23.6 µg/mL)
MIC [8]: 5 µM (≈ 11.8 µg/mL)
MIC (Candida glabrata): 25 µM (≈ 59.1 µg/mL)
MIC (Candida albicans): 3.12 µM (≈ 7.38 µg/mL)
MIC [9]: 5 µM (≈ 11.8 µg/mL)
MIC [10]: 8.5 µM (≈ 20.1 µg/mL)
MIC [11]: 24 µM (≈ 56.7 µg/mL)

SMILES: CC(C)C[C@H](NC(=O)[C@H](CC(C)C)NC(=O)[C@@H](N)CC(C)C)C(=O)NCC(=O)N[C@@H](C)C(=O)N[C@@H](C)C(=O)N[C@H](C(=O)NCC(=O)O)[C@@H](C)O [LLLGAATG]
MIC [20]: ≥ 86.7 µM

SMILES: CC[C@H](C)[C@H](NC(=O)[C@H](CC(C)C)NC(=O)[C@H](CCCCN)NC(=O)[C@H](CC(C)C)NC(=O)[C@H](CC(C)C)NC(=O)[C@H](CCCCN)NC(=O)[C@H](CCCN=C(N)N)NC(=O)[C@H](Cc1ccccc1)NC(=O)[C@H](CC(C)C)NC(=O)[C@H](CCCCN)NC(=O)[C@H](CCCN=C(N)N)NC(=O)[C@H](CC(C)C)NC(=O)[C@@H](N)CCCCN)C(=O)N[C@@H](CCCN=C(N)N)C(=O)N[C@@H](CCCCN)C(=O)N[C@@H](CC(C)C)C(=O)N[C@@H](CC(C)C)C(=O)N[C@@H](CCCN=C(N)N)C(=O)O [KLRKLFRKLLKLIRKLLR]
MIC (Enterococcus faecalis VR): 16 µM (≈ 37.4 µg/mL)
MIC [21]: ≥ 110 µM
MIC [22]: 6.85 µM (≈ 16 µg/mL)
MIC (Escherichia coli BW25113): 6.85 µM (≈ 16 µg/mL)
MIC [23]: 0.856 µM (≈ 2 µg/mL)
MIC (Pseudomonas aeruginosa): 16 µM (≈ 37.4 µg/mL)
MIC (Enterococcus faecalis): 16 µM (≈ 37.4 µg/mL)
MIC [24]: 6.85 µM (≈ 16 µg/mL)
MIC [25]: 4.84 µM (≈ 11.3 µg/mL)
MIC [26]: 6.85 µM and 16 µM
MIC [27]: ≥ 32 µM
MIC [28]: 3.42 µM (≈ 8 µg/mL)
MIC [17]: 9.69 µM and 16 µM
MIC [29]: 16 µM (≈ 37.4 µg/mL)
MIC [30]: 4.84 µM (≈ 11.3 µg/mL)
MIC [31]: 19.4 µM (≈ 45.3 µg/mL)
MIC [11]: 9.69 µM and 16 µM
MIC [32]: 6.85 µM (≈ 16 µg/mL)

SMILES: CC[C@H](C)[C@H](NC(=O)CNC(=O)[C@@H](NC(=O)[C@H](CCCCN)NC(=O)[C@H](CCCCN)NC(=O)[C@H](Cc1ccccc1)NC(=O)[C@H](CC(C)C)NC(=O)[C@H](CCCCN)NC(=O)[C@H](Cc1c[nH]c2ccccc12)NC(=O)[C@@H](N)CCCCN)[C@@H](C)CC)C(=O)NCC(=O)N[C@@H](CCCCN)C(=O)N[C@@H](Cc1ccccc1)C(=O)N[C@@H](CC(C)C)C(N)=O [KWKLFKKIGIGKFL]
MIC [33]: 6.25 µM (≈ 10.7 µg/mL)
MIC [34]: 8.84 µM (≈ 15.1 µg/mL)
MIC [35]: 1.56 µM (≈ 2.66 µg/mL)
MIC [36]: 3.12 µM (≈ 5.32 µg/mL)
MIC [37]: 12.5 µM (≈ 21.3 µg/mL)
MIC [38]: 6.25 µM (≈ 10.7 µg/mL)

Now from value to compound:

MIC [12]: 3.13 µM (≈ 5.09 µg/mL)
MIC [13]: 6.25 µM (≈ 10.2 µg/mL)
SMILES: CC[C@H](C)[C@H](NC(=O)[C@H](CCCCN)NC(=O)[C@H](CO)NC(=O)[C@H](CC(C)C)NC(=O)[C@@H](NC(=O)[C@H](CCCCN)NC(=O)[C@H](CCCCN)NC(=O)[C@@H](N)Cc1c[nH]c2ccccc12)[C@@H](C)CC)C(=O)N[C@@H](CCCCN)C(=O)N[C@@H](CCCCN)C(=O)N[C@@H](CC(C)C)C(=O)N[C@@H](CC(C)C)C(=O)N[C@@H](CCCCN)C(N)=O [WKKILSKIKKLLK]

MIC [14]: ≥ 100 µM
MIC (Bacillus subtilis): ≥ 100 µM
MIC [15]: ≥ 100 µM
MIC [16]: ≥ 100 µM
MIC (Candida albicans SC5314): ≥ 100 µM
MIC [17]: > 100 µM
MIC [18]: ≥ 100 µM
SMILES: CC(C)C[C@H](NC(=O)CNC(=O)[C@H](CS)NC(=O)CNC(=O)[C@H](CC(N)=O)NC(=O)CNC(=O)[C@H](Cc1c[nH]c2ccccc12)NC(=O)CNC(=O)[C@H](CCCN=C(N)N)NC(=O)[C@H](C)NC(=O)[C@@H](N)C(C)C)C(=O)N[C@@H](Cc1ccccc1)C(=O)NCC(=O)N[C@@H](CCCCN)C(=O)NCC(=O)NCC(=O)O [VARGWGNGCGLFGKGG]

MIC [19]: ≥ 100 µM
SMILES: NC(=O)[C@H](CCCN=C(N)N)NC(=O)[C@H](CO)NC(=O)[C@H](CCCN=C(N)N)NC(=O)[C@@H](N)CO [SRSR]
